Measurements taken from paper PMC4747340, “A new class of small molecule estrogen receptor-alpha antagonists that overcome anti-estrogen resistance” (Oncotarget, 2015).

Key:
LCC9 cells = assay: cell proliferation assay (cell counts days 1, 3, 5), LCC9; type: cell-based, human; details: for LCC9 cell proliferation, compound combined with Tam: compound plus Tam (1 μM) compared with compound alone
Procedure: (§1) Starting on day 1, cells were refed daily with fresh medium (DMEM plus 5% CSS) containing the indicated agent. In panel F, the cells were refed with medium also containing ER-siRNA or control-siRNA (100 nM) at the indicated times. Wells were counted on days 1, 3, and 5 to determine cell numbers. Values are means ± SEMs of triplicate wells. The data shown in each panel are representative of three independent experiments.
(§2) Assays were performed using as the growth medium phenol red-free DMEM containing 5% charcoal-stripped serum. Briefly, proliferating cells were harvested using trypsin, counted, inoculated into 12-well dishes at 1 × 10^4 cells per well on day 0 and allowed to attach and recover for 24 hr. The cells were then treated with the indicated agents for up to five days, with daily refeeding with fresh medium and agents. Triplicate wells were counted by Coulter Counter on days 1, 3, and 5. For experiments using siRNAs, cells were treated with the indicated siRNA (100 nM) starting on day -2, and fresh siRNA was added on days 0, 2, and 4.

LCC2 cells = assay: cell proliferation assay (cell counts days 1, 3, 5), LCC2; type: cell-based, human; details: DMEM + 5% charcoal-stripped serum
Procedure: as §1, §2

cathepsin D = assay: Western blotting of cathepsin D (E2/ER-regulated gene) in MCF-7 cells; type: cell-based, human; details: for E2-stimulated expression of cathepsin D: MCF-7, E2 10 nM, 24 hr; for cathepsin D levels, compound alone: MCF-7, no E2, 24 hr
Procedure: MCF-7 cells in DMEM plus 5% CSS were subjected to the indicated treatment(s) for 24-hr and then harvested for Western blotting to detect cathepsin D or actin (control for loading and transfer). B., D. LCC9 cells were treated with vehicle only (DMSO) or the indicated compound for 24-hr and then harvested for Western blotting for cathepsin D and actin. The data shown in each panel are representative of three independent experiments.
After the indicated cell treatment(s), the cells were harvested, and whole-cell lysates were prepared using RIPA buffer (Santa Cruz). Equal aliquots of whole-cell protein (either 100 μg unprecipitated whole-cell lysate or one half of the precipitated protein from 500-μg whole-cell lysate) were electrophoresed on 4-12% SDS-polyacrylamide gradient gels, transferred to nitrocellulose membranes (Millipore, Bedford, MA), and blotted using primary antibodies against BRCA1 (C-20, rabbit polyclonal, 1:200 dilution; Santa Cruz), cathepsin D (R-20, goat polyclonal, 1:300; Santa Cruz), ER (F10, mouse monoclonal, 1:500; Santa Cruz), or actin (goat polyclonal, sc-1615, 1:400; Santa Cruz). The membranes were blotted with the appropriate secondary antibodies (1:1000; Santa Cruz), and the blotted proteins were visualized using an […] detection system (Amersham Biosciences), with colored markers (Bio-Rad Laboratories, Hercules, CA) as molecular size standards.

ER/ERE complex = biological target: T1, ER/ERE complex (Homo sapiens, UniProt P03372); assay: EMSA and supershift assays of ER binding to consensus ERE, MCF-7 nuclear extracts; type: biochemical; details: for ER/ERE complex in EMSA, compound added directly to nuclear extracts: 1-5 μM added to MCF-7 nuclear extracts, compared with pre-incubation of cells; for interaction of ER with a model ERE oligonucleotide (EMSA, supershift): MCF-7 cells
T1 construct: MCF-7 cells in 24-well dishes were transfected overnight with the ERE-TK-Luc reporter plasmid; endogenous in cells; host or cells: MCF-7
T1 sequence (P03372 1-595): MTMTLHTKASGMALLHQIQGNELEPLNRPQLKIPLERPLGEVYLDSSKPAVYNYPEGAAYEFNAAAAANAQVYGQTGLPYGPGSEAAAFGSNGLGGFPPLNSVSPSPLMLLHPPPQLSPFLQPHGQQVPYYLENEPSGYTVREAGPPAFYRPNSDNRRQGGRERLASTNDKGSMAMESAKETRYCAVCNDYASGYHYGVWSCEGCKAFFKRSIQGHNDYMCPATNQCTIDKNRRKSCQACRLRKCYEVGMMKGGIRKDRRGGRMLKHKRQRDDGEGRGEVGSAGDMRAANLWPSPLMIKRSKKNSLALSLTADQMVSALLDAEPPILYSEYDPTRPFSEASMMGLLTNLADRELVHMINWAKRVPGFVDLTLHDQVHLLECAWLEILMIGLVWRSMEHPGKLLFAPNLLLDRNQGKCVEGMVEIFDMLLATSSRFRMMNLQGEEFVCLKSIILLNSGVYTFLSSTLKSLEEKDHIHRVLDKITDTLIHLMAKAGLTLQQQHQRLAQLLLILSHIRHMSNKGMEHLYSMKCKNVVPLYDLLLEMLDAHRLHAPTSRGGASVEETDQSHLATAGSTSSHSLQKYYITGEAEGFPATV
Procedure: After the 24-hr incubation, the cells were harvested, nuclear extracts were prepared, and the extracts were reacted with labeled “hot” ERE and an excess of unlabeled “cold” ERE, as indicated, prior to electrophoresis. In panel B, the experiment was performed similarly except that an anti-ER antibody was added to generate a “supershift”. C., D. Experiments were performed similarly to those above, except that different concentrations of compound (as indicated) were added directly to the reaction mixture containing nuclear extract and were not pre-incubated with whole cells. […] E., F. These experiments were performed similarly to those in C and D, except that anti-ER antibody was added to the reaction mixture to reveal “supershifted” bands. […] The data shown in each panel are representative of three independent experiments.
Double-stranded oligonucleotides containing a consensus ERE were obtained from Santa Cruz Biotechnology (sc-2858). Sequences of the oligonucleotides were: sense 5′-[…]-3′ and antisense: 3′-[…]-5′. Oligonucleotides were 3′-end-labeled using a Biotin Kit (Thermo Scientific, Rockford, IL). DNA binding reactions were carried out using nuclear extracts of MCF-7 cells that were treated ± E2 (10 nM) and ± the indicated compound for 24-hr. Treated cells were harvested and nuclear extracts were prepared using the NE-PER Nuclear and Cytoplasmic Extraction Reagents (Thermo Scientific). Aliquots of nuclear extract protein (2 μg) were incubated with gel-shift binding buffer (LightShift Chemiluminescent EMSA Kit, Thermo Scientific) for 30 min at 25°C. After incubation, 40 fmol of biotin-labeled ERE-containing oligonucleotides were added, and the mixture was re-incubated for 30 min at 25°C. Reaction products were loaded electrophoresed on a 6% DNA retardation gel (Invitrogen) and transferred onto a nylon membrane. Biotin-labeled DNA was detected using the Chemiluminescent Nucleic Acid Detection Module (Thermo Scientific). To test the specificity of binding, a 40-fold excess of unlabeled (“cold”) oligonucleotide was added to one of the reactions along with the biotin-labeled (“hot”) oligonucleotide. Note: In some experiments, the compound was added to the reaction mixture after the nuclear extract was prepared. Supershift assays were performed as above, except that before addition of the hot ERE oligonucleotide, nuclear extracts were incubated with 2-μg of anti-ER IgG (rabbit polyclonal, HC-20, Santa Cruz) for 30 min at 25°C.

| Structure (SMILES) | effect on LCC9 cell growth, single agent (LCC9 cells; DMEM + 5% charcoal-stripped serum, up to 5 days, 4631-P/1 at 1 μM) | LCC9 cell proliferation, compound combined with Tam (LCC9 cells) | proliferation of Tamoxifen-resistant LCC2 cells (LCC2 cells) | E2-stimulated expression of cathepsin D (cathepsin D) | cathepsin D levels, compound alone (cathepsin D) | ER/ERE complex in EMSA, compound added directly to nuclear extracts (ER/ERE complex) | interaction of ER with a model ERE oligonucleotide (EMSA, supershift) (ER/ERE complex) | ER/ERE complex in EMSA, cells pre-incubated with compound (ER/ERE complex; MCF-7 pre-incubated with E2 10 nM and compound 1 or 20 μM for 24 hr) | LCC9 cell proliferation in ER-siRNA-treated cells (LCC9 cells; ER-siRNA 100 nM) |
| --- | --- | --- | --- | --- | --- | --- | --- | --- | --- |
| O=C(c1cc(Br)ccc1O)c1cc(Br)ccc1O [4631-P/1] | inhibited LCC9 cell growth | greater inhibition of cell proliferation than 4631-P/1 alone | inhibited ER-dependent cell proliferation | blocked E2-stimulated expression of cathepsin D | little or no effect | greater effect | disrupt the interaction of ER with a model ERE oligonucleotide | dose-dependent reduction of the ER/ERE complex | – |
| O=C(CC(c1ccccc1)N1CCCCC1)c1ccccc1 (stereo not drawn) [35446-L/1, 1,3-diphenyl-3-(piperidin-1-yl)propan-1-one] | – | greater inhibition of LCC9 proliferation than did 35466-L/1 alone | inhibited ER-dependent cell proliferation | blocked E2-stimulated expression of cathepsin D | little or no effect | greater effect | disrupt the interaction of ER with a model ERE oligonucleotide | – | little effect on cell proliferation |
